In US20020032183A1, “Use of (di-substituted-phenyl)-pyrimidinyl-imidazole derivatives as JNK-inhibitors” (priority 2000, published 2002):
Where a name gives a salt, the structure may show the parent alone.

Legend:
JNK3α1 = biological target: T1, JNK3α1 (Homo sapiens, UniProt P53779); assay: Biochemical determination of inhibition of JNK3α1; conditions: truncated JNK3α1, 1 μM ATP, 0.5 μM GST-ATF2, 30° C., 30 min
T1 construct: Truncated JNK3α1 (amino acids 39-422) was expressed in E. coli; made in house; host or cells: E. coli
T1 sequence (P53779 39-422 isoform P53779-2): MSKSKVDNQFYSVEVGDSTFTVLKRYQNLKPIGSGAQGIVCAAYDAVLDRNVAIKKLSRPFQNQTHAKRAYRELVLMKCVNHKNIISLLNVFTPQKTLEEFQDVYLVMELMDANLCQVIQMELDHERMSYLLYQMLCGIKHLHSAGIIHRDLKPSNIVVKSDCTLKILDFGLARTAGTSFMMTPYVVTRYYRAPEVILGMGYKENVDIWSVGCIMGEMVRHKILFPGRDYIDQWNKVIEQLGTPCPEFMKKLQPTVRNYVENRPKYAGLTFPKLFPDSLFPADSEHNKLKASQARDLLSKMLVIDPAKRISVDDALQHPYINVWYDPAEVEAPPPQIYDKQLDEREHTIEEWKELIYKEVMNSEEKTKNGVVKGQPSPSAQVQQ
Protocol: Activation reactions were incubated at 30° C. for 2 h.
Enzyme inhibition studies were performed at 30° C. for 30 min with 0.5 μM GST-ATF2, 1 μM ATP, 1 nM activated JNK3α1 and compound ranging from 30 pM to 100 μM. Reactions were carried out in 100 μL volumes containing the final concentrations of the following: 25 mM HEPES (Sigma) pH 7.4; 10 mM MgCl2 (Sigma); 2 mM DTT (Sigma); 20 mM β-glycerophosphate (Sigma); 0.1 mM Na3VO4 (Sigma); 2 μCi [γ-^33P]ATP (2000 Ci/mmol; 1 Ci=37 GBq) (Amersham Pharmacia Biotech, Piscataway, N.J.). Reactions were stopped with 100 μL 100 mM EDTA/15 mM sodium pyrophosphate. Immobilon™-P 96-well plates (Millipore MAIPNOB™ 10, available from the Millipore Corp., Bedford, Mass.) were pretreated with 100 μL methanol, followed by 100 μL 15 mM sodium pyrophosphate. Fifty μL of the stopped reaction was spotted in triplicate on the Immobilon™-P 96-well plate. The samples were vacuum-filtered and washed three times each with 100 μL 75 mM H3PO4 to remove unincorporated [γ-^33P]ATP. After the third H3PO4 wash and a final filtration step to remove H3PO4, 50 μL of Microscint™-20 (Packard BioScience Ltd., Pangbourne, Berkshire, U.K.) was added to each well and samples were analyzed on a Packard Topcount™ liquid scintillation counter. IC50 values were determined by fitting the data to the equation for a four parameter logistic.

[1] = test system: Rat superior cervical ganglion neurons; assay: Sympathetic neuronal survival assay (no NGF exposure; GAP-43 ELISA and cell counts); format: cell-based; conditions: NGF 1 ng/ml
Protocol: Activation of c-jun-N-terminal kinase (JNK) has been implicated in apoptosis in sympathetic neurons. An inhibitor of JNK, Example 2, was tested for neuroprotective effects in two models of sympathetic neuronal cell death.
In the first model, ganglia were dissociated and plated directly into culture plates in the presence of compound for 48 hours, then fixed and survival assayed using an ELISA for GAP-43. This model will hereafter be referred to as the ‘survival assay’.
Ganglia were enzymatically dissociated using 0.25% trypsin for 45 minutes. The trypsin was then inhibited using Dulbecco's MEM (DMEM) supplemented with 10% fetal bovine serum, and the cells mechanically triturated using a pipette tip to form a single cell suspension. Neurons in the suspension were counted using a haemocytometer, and plated at a density of 3000-5000 neurons per well in poly-D-lysine and laminin coated 96 well tissue culture clusters in DMEM supplemented with B27 serum substitute. Cultures were then incubated at 37° C./5% CO2. One hour following plating, cultures were either treated with NGF 25 ng/ml or with L-790,984 at a range of concentrations for the NGF deprivation and survival assays respectively.
Cultures for the NGF deprivation assay were returned to the incubator for 4 days. Following this, the medium was aspirated, plates washed once with DMEM/B27, and the cultures treated with Example 2 at concentrations ranging from 1 nM to 10 μM, together with an anti-NGF blocking antibody at 250 ng/ml. Cultures were then returned to the incubator for a further 72 hours prior to fixation and survival quantification. Cultures treated with Example 2 immediately for the survival assay were returned to the incubator for 48 hours; cultures were then fixed and survival quantified using the GAP-43 ELISA.
Cultures were fixed by the addition of an equal volume 4% paraformaldehyde to each well for 10 minutes; this was then aspirated, and replaced by a further volume of 4% paraformaldehyde for a further 20 minutes at room temperature. Plates were then washed three times with PBS/0.3% TX100, and non-specific binding sites blocked by the addition of 5% normal horse serum (NHS) in PBS/0.3% TX100. Plates were incubated at room temperature for one hour, then the blocking serum was aspirated without washing and replaced with primary antibody. The primary antibody used was a mouse monoclonal antibody raised against Growth Associated Protein 43 (Sigma), prepared at a dilution of 1:500 in PBS/0.3% TX100/5% NHS. Primary antibody was added to all sample wells, with four control wells returned to blocking serum to act as minus primary control. Plates were then refrigerated overnight at 4° C. The next day, plates were washed three times with PBS/0.3 TX100 and secondary antibody added. The secondary antibody used was peroxidase conjugated sheep anti-mouse IgG, and was added at a dilution of 1:1000 in PBS/0.3% TX100/5% NHS. Plates were incubated for 1 hour at room temperature, then washed three times with PBS/0.3% TX100, and K-Blue insoluble peroxidase substrate added for 30 minutes at room temperature. The optical density of the plates was then read at 650 nm, and the survival of neurons calculated and expressed as percentage of the control response.
Cell counts were performed on one sample plate for each model of sympathetic neuronal cell death, by the addition of a tertiary antibody to the plate, followed by avidin-biotin complex and an insoluble peroxidase substrate. Following quantification of optical density, plates were washed three times in PBS/0.3% TX100, and non-specific sites blocked using PBS/0.3% TX100/5% normal rabbit serum (“NRS”). Plates were incubated for one hour at room temperature, then the blocking serum was aspirated and replaced with biotinylated rabbit anti-sheep IgG at a dilution of 1:500 in PBS/0.3% TX10O/5% NRS. […]

| Molecule | IC50 (JNK3α1) [nM] | Survival, ELISA Data Mean ([1]; GAP-43 ELISA) | Survival, Cell Counts Mean ([1]; immunostained neurons per well) |
| --- | --- | --- | --- |
| Clc1ccc(-c2nc(C3CCNCC3)n(CC3CC3)c2-c2ccnc(NC3CC3)n2)cc1Cl [Example 7, Cyclopropyl-{4-[3-cyclopropylmethyl-5-(3,4-dichlorophenyl)-2-piperidin-4-yl-3H-imidazol-4-yl]-pyrimidin-2-yl}amine bis trifluoroacetic acid salt] | 4 | – | – |
| CCCn1c(C2CCNCC2)nc(-c2ccc(Cl)c(Cl)c2)c1-c1ccnc(NC2CC2)n1 [Example 1, Cyclopropyl-{4-[5-(3,4-dichlorophenyl)-2-piperidin-4-yl-3-propyl-3H-imidazol-4-yl]-pyrimidin-2-yl}amine] | 8 | – | – |
| NGF: NGF at 1 ng/ml, comparison group in the sympathetic neuronal survival assay; these neurons are NGF dependent (protein, UniProt P01139 122-241, looked up) Beta-nerve growth factor: SSTHPVFHMGEFSVCDSVSVWVGDKTTATDIKGKEVTVLAEVNINNSVFRQYFFETKCRASNPVESGCRGIDSKHWNSYCTTTHTFVKALTTDEKQAAWRFIRIDTACVCVLSRKATRRG | – | 618.55 | 587.00 |
